# Reference: patent US20260335310A1, “GEPOTIDACIN FOR USE IN THE TREATMENT OF BACTERIAL PROSTATITIS” (GLAXOSMITHKLINE INTELLECTUAL PROPERTY DEVELOPMENT LIMITED, priority 2022, published 2026)
# Like-named read-outs stand apart in the source and are kept apart here.
# Key:
# [1] = In vivo microdialysis of unbound gepotidacin in blood, muscle and prostate of healthy and E. coli infected rats; design: species or system rat; details: for Kp uu: rat, iv, 20 mg/kg
# Description: The example herein describes microdialysis experiments in E. coli infected rats to measure tissue distribution of unbound gepotidacin. In vivo microdialysis experiments simultaneously determined unbound gepotidacin concentrations in rat prostate, muscle, and blood. It is important to understand the tissue distribution of unbound gepotidacin, especially in the target prostate tissue, since gepotidacin must diffuse through capillary membranes to reach the prostate. An assumption that the plasma concentration of gepotidacin represents a suitable surrogate of prostate concentrations, without prostate tissue confirmation, may lead to erroneous conclusions, especially since the pathogen is localized in the prostate.
# (§1) An Escherichia coli prostatitis model in rats was obtained as follows. Four days before microdialysis, rats (n=11) were infected with Escherichia coli ATCC 13441 in the prostatic urethra, to induce E. coli prostatitis, at an inoculum of 10^7 CFU/rat. Healthy rats (n=9) were not infected with E. coli as control.
# (§2) The day before the experiment, two CMA/20 probes (membrane length 10 mm, Harvard Apparatus, Courtaboeuf France) were inserted into right jugular vein and the right hind leg muscle of healthy and infected rats under anesthesia and analgesic treatment. In parallel, catheters were inserted into the femoral vein and artery to administer gepotidacin intravenously (IV) and to collect blood samples for determination of total plasma gepotidacin concentrations, respectively. The rats were allowed to recover consciousness, and food was withdrawn for 12 hours.
# (§3) On the day of the experiment, healthy control and infected rats were re-anesthetized and a CMA/20 Elite probe (membrane length 4 mm) was inserted into the prostate. All probes were connected to infusion pumps and perfused with Ringer containing a calibrator (((R)-1-((4-(((2,3-dihydro-[1,4]oxathiino[2,3-c]pyridin-7-yl)methyl)amino)piperidin-1-yl)methyl)-1,2-dihydro-3H,8H-2a,5,8a-triazaacenaphthylene-3,8-dione; […]) at a flow rate of 0.5 μL/min with Ringer. After an equilibration period, gepotidacin was administered by IV bolus at a dose of 20 mg/kg. Blood, muscle, and prostate dialysates were collected every 10 minutes for 90 minutes, and then every 30 minutes […]. Seven blood samples were also collected for analysis of gepotidacin pharmacokinetics in total plasma. Gepotidacin concentrations were measured in dialysates and in plasma by LC-MS/MS.
# Pharmacokinetic (PK) parameters were determined in each individual rat by a noncompartmental approach according to standard procedures and with the software Phoenix WinNonLin 7. (Certara, Princeton, NJ) Total unbound body clearance (CLu) was calculated as CLu=dose/AUCu,blood, where AUCu,blood is the total area under the unbound blood concentration-versus-time curve from zero to infinity, equal to the area under the curve from zero to the last measured concentration AUC0-last,u,blood added to the area under the curve from the last measured concentration to infinity AUClast-infinity,u,blood. AUC0-last,u,blood was calculated by linear-logarithmic trapezoidal method. AUClast-infinity,u,blood the area remaining under the curve after the last measured concentration, C(last)u,blood was determined from C(last)u,blood/keblood. The elimination rate constant (keblood) and its corresponding half-life (t1/2,blood) were estimated by least squares fit of the data points (log concentration-time). The linear-logarithmic trapezoidal method was used to compute the area under the unbound blood concentration-versus-time moment curve AUMC0-last,u,blood from zero to the last measured concentration. AUMClast-infinity,u,blood the area remaining under the curve after the last measured concentration was determined from: tlast×C(last)u,blood/keblood+C(last)u,blood/keblood^2. The mean residence time from zero to infinity, MRT0-infinity was determined from AUMC0-infinity,u,blood/AUC0-infinity,u,blood. […]
# [2] = Total plasma pharmacokinetics of gepotidacin in healthy and E. coli infected rats; assay type: in vivo, rat; details: IV bolus 20 mg/kg; for Vd / half-life / clearance: rat, plasma, iv, 20 mg/kg; for clearance: read-out: CLt,plasma
# Description: as §1, §2, §3
# Pharmacokinetic (PK) parameters were determined in each individual rat by a noncompartmental approach according to standard procedures and with the software Phoenix WinNonLin 7. (Certara, Princeton, NJ) Total unbound body clearance (CLu) was calculated as CLu=dose/AUCu,blood, where AUCu,blood is the total area under the unbound blood concentration-versus-time curve from zero to infinity, equal to the area under the curve from zero to the last measured concentration AUC0-last,u,blood added to the area under the curve from the last measured concentration to infinity AUClast-infinity,u,blood. AUC0-last,u,blood was calculated by linear-logarithmic trapezoidal method. AUClast-infinity,u,blood the area remaining under the curve after the last measured concentration, C(last)u,blood was determined from C(last)u,blood/keblood. The elimination rate constant (keblood) and its corresponding half-life (t1/2,blood) were estimated by least squares fit of the data points (log concentration-time). The linear-logarithmic trapezoidal method was used to compute the area under the unbound blood concentration-versus-time moment curve AUMC0-last,u,blood from zero to the last measured concentration. AUMClast-infinity,u,blood the area remaining under the curve after the last measured concentration was determined from: tlast×C(last)u,blood/keblood+C(last)u,blood/keblood^2. The mean residence time from zero to infinity, MRT0-infinity was determined from AUMC0-infinity,u,blood/AUC0-infinity,u,blood. The volume of distribution (VSSu) was obtained from MRT0-infinity×CLu. The AUCu and t1/2,u in tissues were also estimated by the same procedure.
# [3] = healthy rats (n = 9), blood, unbound, IV bolus 20 mg/kg
# [4] = healthy rats (n = 9), muscle, unbound, IV bolus 20 mg/kg
# [5] = healthy rats (n = 9), prostate, unbound, IV bolus 20 mg/kg
# [6] = infected rats (n = 11; E. coli ATCC 13441 prostatitis), blood, unbound, IV bolus 20 mg/kg
# [7] = infected rats (n = 11; E. coli ATCC 13441 prostatitis), muscle, unbound, IV bolus 20 mg/kg
# [8] = infected rats (n = 11; E. coli ATCC 13441 prostatitis), prostate, unbound, IV bolus 20 mg/kg
# [9] = prostatitis (infected) rats, FIG. 1C-1D
# [10] = infected rats (n = 11; E. coli ATCC 13441 prostatitis)
compound,measurement,setting,value
"O=c1ccc2ncc(=O)n3c2n1C[C@H]3CN1CCC(NCc2cc3c(cn2)OCCC3)CC1 [gepotidacin, (2R)-2-({4-[(3,4-dihydro-2/pyrano[2,3-c]pyridin-6-ylmethyl)amino]-1-piperidinyl}methyl)-1,2-dihydro-3H,8/2a,5,8a-triazaacenaphthylene-3,8-dione]","Half-life and Cmax,u in blood, muscle, and prostate, comparison of tissues",[1]; healthy control rats,similar
same,Unbound concentration time profile in blood,"[1]; healthy control rats, FIG. 1A, 1B",biphasic
same,Concentration profiles in prostate and muscle relative to blood,"[1]; healthy control rats, with the exception of the first time point, FIG. 1A",almost superimposed with blood concentrations
same,CLu (total unbound body clearance),[1]; [3],44.4 ± 5.1 mL/min/kg
same,"Cmax,u",[1]; [3],10300 ± 2600 ng/mL
same,VSSu (volume of distribution),[1]; [3],3.967 ± 0.557 L/kg
same,"t1/2,u",[1]; [3],1.3 ± 0.317 h
same,"Cmax,u",[1]; [4],8600 ± 2500 ng/mL
same,"t1/2,u",[1]; [4],1.3 ± 0.15 h
same,"Cmax,u",[1]; [5],8200 ± 1900 ng/mL
same,"t1/2,u",[1]; [5],1.13 ± 0.183 h
same,"Cmax in prostate, infected compared to healthy rats",[1]; infected rats,slightly lower compared to healthy rats
same,"Half-lives, comparison of blood, muscle, and prostate",[1]; infected rats,"the same between blood, muscle, and prostate"
same,CLu (total unbound body clearance),[1]; [6],35.8 ± 5.5 mL/min/kg
same,"Cmax,u",[1]; [6],12300 ± 1900 ng/mL
same,VSSu (volume of distribution),[1]; [6],3.344 ± 0.59 L/kg
same,"t1/2,u",[1]; [6],1.43 ± 0.383 h
same,"Cmax,u",[1]; [7],9900 ± 3800 ng/mL
same,"t1/2,u",[1]; [7],1.28 ± 0.367 h
same,"Cmax,u",[1]; [8],6600 ± 2700 ng/mL
same,"t1/2,u",[1]; [8],1.38 ± 0.15 h
same,"Muscle/blood and prostate/blood AUCu ratios, infected compared to healthy rats","[1]; infected vs healthy rats, p>0.05, Wilcoxon test, R software",not significantly different
same,Unbound concentration time profile in blood,[1]; [9],biphasic
same,Unbound concentrations in prostate relative to blood,[1]; [9],slightly lower than in blood
same,Kp uu,"[1]; muscle, healthy rats (n = 9), unbound, IV bolus 20 mg/kg, read-out: AUCu muscle/blood",1.06 ± 0.17
same,Kp uu,"[1]; muscle, infected rats (n = 11; E. coli ATCC 13441 prostatitis), unbound, IV bolus 20 mg/kg, read-out: AUCu muscle/blood",1.03 ± 0.13
same,Kp uu,"[1]; muscle/blood and prostate/blood, healthy control rats, muscle/blood and prostate/blood, read-out: AUCu ratios",~1
same,Kp uu,"[1]; prostate, healthy rats (n = 9), unbound, IV bolus 20 mg/kg, read-out: AUCu prostate/blood",0.89 ± 0.17
same,Kp uu,"[1]; prostate, infected rats (n = 11; E. coli ATCC 13441 prostatitis), unbound, IV bolus 20 mg/kg, read-out: AUCu prostate/blood",0.78 ± 0.21
same,AUC,[2]; healthy rats (n = 9),6750 ± 950 ng·h/mL
same,AUC,[2]; [10],7870 ± 2380 ng·h/mL
same,Vd,[2]; healthy rats (n = 9),4.26 ± 0.851 L/kg
same,half-life,[2]; healthy rats (n = 9),1.2 ± 0.19 h
same,clearance,[2]; healthy rats (n = 9),50.3 ± 7.1 mL/min/kg
same,Vd,[2]; [10],4.02 ± 0.997 L/kg
same,half-life,[2]; [10],1.27 ± 0.165 h
same,clearance,[2]; [10],45.6 ± 12.8 mL/min/kg
